Values quoted from earlier work, collected in publication PMC4336743, “Improved production of sublancin via introduction of three characteristic promoters into operon clusters responsible for this novel distinct glycopeptide biosynthesis” (Microbial Cell Factories, 2015).

Legend:
[1] = system: proteinases, peptidases
Method: Proteolytic susceptibility of sublancin should also be considered in various applications such as in treating bacterial–mediated mastitis or bacterial–mediated gastroenteritis. Therefore, a number of bacterial proteases and gastrointestinal digestive enzymes, e.g., P. aeruginosa elastase and S. aureus V8 protease, pepsin and trypsin would certainly be encountered. […] All experiments were performed in vitro; therefore in vivo studies should be conducted prior to clinical ap ...

[2] = system: S. aureus
Method: Antibacterial activity and cytotoxicity of sublancin were also evaluated. […] These findings are consistent with previously reported study and is almost equal to that of nisin that is a common and typical antimicrobial peptide from Lactococcus lactis, and is widely used in clinical and food preservation applications, with MIC of 0.5 mg/L against S. aureus.

Bovicin HC5
antimicrobial potency after exposure to proteinases, peptidases and heat [1]: remarkable antimicrobial potency reduction

nisin
MIC against S. aureus [2]: 0.5 µg/mL
